Converted amounts (≈) assume the structure as drawn.
Assays:
Assay type in all cases: functional
Kluyveromyces marxianus [1] = test: Antifungal activity against Candida kefyr assessed as growth inhibition by microbroth dilution method
Cryptococcus neoformans = test: Antifungal activity against Cryptococcus neoformans assessed as growth inhibition after 72 hrs by microbroth dilution method
Candida albicans [2] = test: Ratio of fluconazole MIC80 to compound MIC80 against Candida albicans SC5314
Candida albicans [3] = test: Antifungal activity against Candida albicans Y0109 assessed as growth inhibition after 24 hrs by microbroth dilution method; details: Y0109, 24 h
Trichophyton rubrum [4] = test: Antifungal activity against Trichophyton rubrum assessed as growth inhibition by microbroth dilution method
Candida parapsilosis = test: Antifungal activity against Candida parapsilosis assessed as growth inhibition by microbroth dilution method; details: Lodderomyces parapsilosis
Candida tropicalis = test: Antifungal activity against Candida tropicalis assessed as growth inhibition by microbroth dilution method
Candida albicans [5] = test: Antifungal activity against Candida albicans SC5314 assessed as growth inhibition after 24 hrs by microbroth dilution method; details: SC5314, 24 h
Aspergillus fumigatus = test: Antifungal activity against Aspergillus fumigatus assessed as growth inhibition by microbroth dilution method
Kluyveromyces marxianus [6] = test: Ratio of fluconazole MIC80 to compound MIC80 against Candida kefyr
Trichophyton rubrum [7] = test: Ratio of fluconazole MIC80 to compound MIC80 against Trichophyton rubrum

Row | Compound | MIC80 (Kluyveromyces marxianus [1]) [µg/mL] | MIC80 (Cryptococcus neoformans) [µg/mL] | Ratio (Candida albicans [2]) | MIC80 (Candida albicans [3]) [µg/mL] | MIC80 (Trichophyton rubrum [4]) [µg/mL] | MIC80 (Candida parapsilosis) [µg/mL] | MIC80 (Candida tropicalis) [µg/mL] | MIC80 (Candida albicans [5]) [µg/mL] | MIC80 (Aspergillus fumigatus) [µg/mL] | Ratio (Kluyveromyces marxianus [6]) | Ratio (Trichophyton rubrum [7])
1 | CN(Cc1cn(Cc2cccc([N+](=O)[O-])c2)nn1)CC(O)(Cn1cncn1)c1ccc(F)cc1F (stereo not drawn) | 0.0156 | 0.25 (≈ 0.516 µM) | 32 | < 0.125 | 0.0625 | 0.0625 | 0.0625 | 0.0156 (≈ 0.0322 µM) | > 64 | 64 | –
2 | CN(Cc1cn(Cc2ccc([N+](=O)[O-])cc2)nn1)CC(O)(Cn1cncn1)c1ccc(F)cc1F (stereo not drawn) | 0.25 | 0.25 (≈ 0.516 µM) | – | 0.25 (≈ 0.516 µM) | 1 | 0.25 | 0.25 | 0.25 (≈ 0.516 µM) | > 64 | – | –
3 | CN(Cc1cn(Cc2ccccc2C#N)nn1)CC(O)(Cn1cncn1)c1ccc(F)cc1F (stereo not drawn) | 0.25 | 0.25 (≈ 0.538 µM) | – | < 0.125 | 1 | 0.0625 | 0.25 | 0.25 (≈ 0.538 µM) | > 64 | – | –
4 | CN(Cc1cn(Cc2cccc(C#N)c2)nn1)CC(O)(Cn1cncn1)c1ccc(F)cc1F (stereo not drawn) | 1 | 4 (≈ 8.61 µM) | – | 0.5 (≈ 1.08 µM) | 1 | 0.25 | 1 | 1 (≈ 2.15 µM) | > 64 | – | –
5 | CN(Cc1cn(Cc2ccc(C#N)cc2)nn1)CC(O)(Cn1cncn1)c1ccc(F)cc1F (stereo not drawn) | 0.0625 | 0.25 (≈ 0.538 µM) | 8 | < 0.0125 | 0.0625 | 0.0156 | 0.0625 | 0.0625 (≈ 0.135 µM) | > 64 | 16 | 32
6 | CN(Cc1cn(Cc2cccc(F)c2)nn1)CC(O)(Cn1cncn1)c1ccc(F)cc1F (stereo not drawn) | 64 | 2 (≈ 4.37 µM) | – | 0.25 (≈ 0.546 µM) | 16 | 0.5 | 0.5 | 0.25 (≈ 0.546 µM) | > 64 | – | –
7 | CN(Cc1cn(Cc2ccc(F)cc2)nn1)CC(O)(Cn1cncn1)c1ccc(F)cc1F (stereo not drawn) | 16 | 1 (≈ 2.19 µM) | – | 0.5 (≈ 1.09 µM) | 4 | 0.25 | 0.25 | 1 (≈ 2.19 µM) | > 64 | – | –
8 | CN(Cc1cn(Cc2ccccc2Cl)nn1)CC(O)(Cn1cncn1)c1ccc(F)cc1F (stereo not drawn) | 16 | 0.25 (≈ 0.528 µM) | – | 0.25 (≈ 0.528 µM) | 4 | 0.25 | 1 | 0.25 (≈ 0.528 µM) | > 64 | – | –
9 | CN(Cc1cn(Cc2ccc(Cl)cc2)nn1)CC(O)(Cn1cncn1)c1ccc(F)cc1F (stereo not drawn) | 0.25 | 1 (≈ 2.11 µM) | – | < 0.125 | 4 | 0.25 | 1 | 0.25 (≈ 0.528 µM) | > 64 | – | –
10 | CN(Cc1cn(Cc2ccccc2Br)nn1)CC(O)(Cn1cncn1)c1ccc(F)cc1F (stereo not drawn) | 0.0625 | 0.25 (≈ 0.482 µM) | – | 0.25 (≈ 0.482 µM) | 0.25 | 0.25 | 0.25 | 0.25 (≈ 0.482 µM) | > 64 | – | –
11 | CN(Cc1cn(Cc2cccc(Br)c2)nn1)CC(O)(Cn1cncn1)c1ccc(F)cc1F (stereo not drawn) | 0.25 | 0.25 (≈ 0.482 µM) | – | < 0.125 | 1 | 0.0625 | 0.25 | 0.25 (≈ 0.482 µM) | > 64 | – | –
12 | CN(Cc1cn(Cc2ccc(Br)cc2)nn1)CC(O)(Cn1cncn1)c1ccc(F)cc1F (stereo not drawn) | 1 | 1 (≈ 1.93 µM) | – | < 0.125 | 4 | 0.25 | 0.25 | 0.25 (≈ 0.482 µM) | > 64 | – | –
13 | Cc1ccccc1Cn1cc(CN(C)CC(O)(Cn2cncn2)c2ccc(F)cc2F)nn1 (stereo not drawn) | 0.25 | 0.25 (≈ 0.551 µM) | – | 0.25 (≈ 0.551 µM) | 4 | 0.0625 | 0.25 | 0.25 (≈ 0.551 µM) | > 64 | – | –
14 | Cc1ccc(Cn2cc(CN(C)CC(O)(Cn3cncn3)c3ccc(F)cc3F)nn2)cc1 (stereo not drawn) | 0.25 | 1 (≈ 2.21 µM) | – | < 0.125 | 1 | 0.0625 | 1 | 0.25 (≈ 0.551 µM) | > 64 | – | –
15 | CN(Cc1cn(Cc2ccccc2[N+](=O)[O-])nn1)CC(O)(Cn1cncn1)c1ccc(F)cc1F (stereo not drawn) | 0.25 | 1 (≈ 2.06 µM) | – | < 0.125 | 4 | 0.25 | 1 | 0.25 (≈ 0.516 µM) | > 64 | – | –
16 | C[C@@H]1[C@H](O)[C@@H](C)/C=C/C=C/C=C/C=C/C=C/C=C/C=C/[C@H](O[C@@H]2O[C@H](C)[C@@H](O)[C@H](N)[C@@H]2O)C[C@@H]2O[C@](O)(C[C@@H](O)C[C@@H](O)[C@H](O)CC[C@@H](O)C[C@@H](O)CC(=O)O[C@H]1C)C[C@H](O)[C@H]2C(=O)O [AMPHOTERICIN B] | 0.25 | 4 (≈ 4.33 µM) | – | 4 (≈ 4.33 µM) | 0.125 | 1 | 0.25 | 8 (≈ 8.66 µM) | 32 | – | –
17 | OC(Cn1cncn1)(Cn1cncn1)c1ccc(F)cc1F [FLUCONAZOLE] | 1 | 8 (≈ 26.1 µM) | – | 0.5 (≈ 1.63 µM) | 2 | < 0.125 | < 0.125 | 0.5 (≈ 1.63 µM) | > 64 | – | –
18 | CCC(C)n1ncn(-c2ccc(N3CCN(c4ccc(OCC5COC(Cn6cncn6)(c6ccc(Cl)cc6Cl)O5)cc4)CC3)cc2)c1=O (stereo not drawn) [ITRACONAZOLE] | 0.0625 | 0.125 (≈ 0.177 µM) | – | 0.0625 (≈ 0.0886 µM) | 0.0625 | 0.0625 | < 0.0625 | < 0.0625 | 2 | – | –
19 | CC(=O)N1CCN(c2ccc(OCC3COC(Cn4ccnc4)(c4ccc(Cl)cc4Cl)O3)cc2)CC1 (stereo not drawn) [KETOCONAZOLE] | 0.0625 | 0.5 (≈ 0.941 µM) | – | < 0.125 | < 0.125 | < 0.125 | < 0.125 | < 0.125 | 0.125 | – | –
20 | CN(C/C=C/C#CC(C)(C)C)Cc1cccc2ccccc12 [TERBINAFINE] | 0.0625 | 8 (≈ 27.5 µM) | – | 2 (≈ 6.86 µM) | < 0.125 | < 0.125 | < 0.125 | 16 (≈ 54.9 µM) | 0.25 | – | –
21 | C[C@@H](c1ncncc1F)[C@](O)(Cn1cncn1)c1ccc(F)cc1F [VORICONAZOLE] | 0.0039 | < 0.125 | – | < 0.125 | < 0.125 | 0.25 | < 0.125 | 32 (≈ 91.6 µM) | < 0.125 | – | –

Reference: ChEMBL document CHEMBL3217508, “Synthesis and antifungal activity of the novel triazole compounds” (2013)
